{
  "source": "patent US12036189B2",
  "about": "“Method of treating major depressive disorder” (priority 2018, dated 2024)",
  "key": {"[1]": {"tested_on": "human peripheral blood lymphocytes (HPBL)", "experimental": "The study was conducted in 2 phases, with a preliminary toxicity test used to determine the appropriate concentrations for the definitive chromosomal aberration assay. Water was used as a negative (vehicle) control. In both phases, the cells were treated for 3 and 21 hours in the absence of S9 mix and for 3 hours in the presence of S9 mix. The mitotic index was assessed for all cultures to determine cytotoxicity. Ten concentrations, ranging from 2.62 to 260.16 μg/mL, were evaluated in the preliminary toxicity test. […] S-Norketamine concentrations of 93.66, 156.10 or 260.16 μg/mL were selected for metaphase analysis."}, "[2]": {"tested_on": "animal models of depression", "settings": "cited from earlier work"}, "[3]": {"tested_on": "human peripheral blood lymphocytes (HPBL)", "description": "The clastogenic potential of esketamine was evaluated in the in vitro mammalian chromosome aberration test using human peripheral blood lymphocytes (HPBL) in both the absence and presence of an induced metabolic activation system (the 9000 g supernatant [S9] microsomal fraction of liver homogenate from rats exposed to Aroclor-1254).\nThe study was conducted in 2 phases, with a preliminary toxicity test used to determine the appropriate concentrations for the definitive chromosomal aberration assay. Water was used as a negative (vehicle) control. Toxicity (defined as ≥45% reduction in MI relative to the vehicle control) was evaluated at 9 concentrations, ranging from 0.0238 to 238 μg/ml, after exposure of HPBL to esketamine for 20 hours in the absence of S9 activation, or for 4 hours, either in the presence or absence of S9 activation, followed by a 16-hour recovery period.\nThe definitive chromosome aberration assay evaluated HPBL cells after exposure to esketamine for 20 hours in the absence of S9 activation, or for 4 hours, either in the presence of absence of S9 activation, followed by a 16-hour recovery. Positive controls for chromosomal aberrations in non-activated and S9-activated evaluations, respectively, consisted of mitomycin C (MMC, 0.6 and 0.3 μg/mL for the 4- and 20-hour exposures, respectively) and cyclophosphamide (CP, 2.5, 5, and 7.5 μg/mL). […] Initially, the doses selected for evaluation of chromosomal aberrations were 60, 120, and 238 μg/mL for the non-activated 4- and 20-hour treatment conditions; and 30, 60, and 200 μg/mL for the S9-activated 4-hour treatment condition.", "remark": "listed apart in the source"}, "[4]": {"experiment": "Repeated dose 28 day study, toxicokinetics", "settings": "male rats, Day 28", "description": "The objective of the study was to assess the potential toxicity, neurobehavioral effects, and toxicokinetics (TK) of esketamine when administered orally, via gavage, to Sprague Dawley rats for 28 days and to evaluate recovery during a 14-day drug-free period. Fifty male and 50 female rats were randomized into 4 groups (15/sex/Groups 1 and 4; 10/sex/Groups 2 and 3). Esketamine was administered via oral gavage once daily for 28 consecutive days to males at 0 (vehicle control), 6, 10 or 30 mg/kg/day and females at 0 (vehicle control), 2, 10 or 20 mg/kg/day in a dose volume of 10 mL/kg. Animals were observed until euthanized and necropsied on Day 29 (10/sex/group) or 43 (5/sex from Groups 1 and 4). Toxicity was evaluated based on mortality, clinical observations, body weights, food consumption, ophthalmology, motor activity, functional observational battery, clinical pathology (clinical chemistry, hematology, coagulation and urinalysis), organ weights, anatomic (macroscopic or microscopic) pathology. Toxicokinetic animals (3/sex/Group 1; 6/sex/Groups 2, 3, and 4) were similarly dosed and bled on Day 1 and during Week 4 for toxicokinetic analysis."}, "[5]": {"experiment": "Single dose, randomized, open-label crossover study, pharmacokinetics", "settings": "esketamine hydrochloride, 15 subjects", "from_the_text": "A randomized, open-label 4-way crossover study in 16 healthy male and female subjects was held wherein said subjects were placed in a randomly assigned order and administered esketamine. Each subject was assigned to 1 of 4 treatment sequences according to a randomization code such that 4 subjects were assigned to each treatment sequence. There was a wash-out period of at least 7 days between dosing periods with dosing consisting of either oral or intravenous esketamine hydrochloride. The study consisted of an eligibility screening period of 28 days, 4 study periods involving administration of a single dose of esketamine hydrochloride followed by safety assessments with blood sampling for PK purposes up to 72 hours after study drug administration, discharge at 72 hours after study drug administration and a follow-up visit 7-14 days after the last PK blood sample was taken on Day 4."}, "liver of Crl:CD(SD) rats": {"tested_on": "liver of Crl:CD(SD) rats", "experiment": "In vivo single cell gel electrophoresis (comet) assay, DNA strand breaks in the liver"}},
  "data": [
    {"compound": "N[C@]1(c2ccccc2Cl)CCCCC1=O", "note": "[S-norketamine]", "values": [
      {"measurement": "Toxicity (mitotic index)", "setting": "[1]", "result": "not observed at any dose"},
      {"measurement": "induction of structural and numerical chromosomal aberrations", "setting": "[1]", "result": "negative"}
    ]},
    {"compound": "CN[C@@]1(c2ccccc2Cl)CCCCC1=O", "note": "[(R)-ketamine, (2R)-2-(2-Chlorophenyl)-2-(methylamino) cyclohexanone]", "values": [
      {"measurement": "psychotomimetic side effects and abuse liability", "setting": "[2]", "result": "without psychotomimetic side effects and abuse liability"}
    ]},
    {"compound": "CN[C@]1(c2ccccc2Cl)CCCCC1=O", "note": "[esketamine, (2S)-2-(2-Chlorophenyl)-2-(methylamino) cyclohexanone]", "values": [
      {"measurement": "Toxicity (≥45% reduction in MI relative to the vehicle control)", "setting": "[3]", "result": "not observed at any dose"},
      {"measurement": "doses at which cytotoxicity (≥45% reduction in mitotic index) was observed", "setting": "[3]; human", "result": "≥ 200", "unit": "µg/mL"},
      {"measurement": "t1/2", "setting": "[4]; 10 mg/kg oral gavage", "result": 0.6, "unit": "h"},
      {"measurement": "AUC0-t", "setting": "[4]; 30 mg/kg oral gavage", "result": 575, "unit": "ng·h/mL"},
      {"measurement": "AUC0-inf, Geometric mean", "setting": "[5]; 0.3 mg/kg iv", "result": 257.14, "unit": "ng·h/mL"},
      {"measurement": "AUC0-t, Geometric mean", "setting": "[5]; 0.3 mg/kg iv", "result": 249.15, "unit": "ng·h/mL"},
      {"measurement": "Cmax, Geometric mean", "setting": "[5]; 0.3 mg/kg iv", "result": 94.50, "unit": "ng/mL"},
      {"measurement": "t1/2, Geometric mean", "setting": "[5]; 0.3 mg/kg iv", "result": 10.16, "unit": "h"},
      {"measurement": "tmax, Median", "setting": "[5]; 0.3 mg/kg iv", "result": 1.00, "unit": "h"},
      {"measurement": "AUC0-inf, Geometric mean", "setting": "[5]; 20 mg oral solution", "result": 25.82, "unit": "ng·h/mL"},
      {"measurement": "AUC0-t, Geometric mean", "setting": "[5]; 20 mg oral solution", "result": 23.44, "unit": "ng·h/mL"},
      {"measurement": "Cmax, Geometric mean", "setting": "[5]; 20 mg oral solution", "result": 16.48, "unit": "ng/mL"},
      {"measurement": "t1/2, Geometric mean", "setting": "[5]; 20 mg oral solution", "result": 2.91, "unit": "h"},
      {"measurement": "tmax, Median", "setting": "[5]; 20 mg oral solution", "result": 0.50, "unit": "h"},
      {"measurement": "AUC0-inf, Geometric mean", "setting": "[5]; 20 mg oral tablet", "result": 22.46, "unit": "ng·h/mL"},
      {"measurement": "AUC0-t, Geometric mean", "setting": "[5]; 20 mg oral tablet", "result": 20.05, "unit": "ng·h/mL"},
      {"measurement": "tmax, Median", "setting": "[5]; 20 mg oral tablet", "result": 0.75, "unit": "h"},
      {"measurement": "t1/2, Geometric mean", "setting": "[5]; 20 mg oral", "result": 2.84, "unit": "h"},
      {"measurement": "AUC0-inf, Geometric mean", "setting": "[5]; 100 mg oral tablet", "result": 180.84, "unit": "ng·h/mL"},
      {"measurement": "AUC0-t, Geometric mean", "setting": "[5]; 100 mg oral tablet", "result": 172.71, "unit": "ng·h/mL"},
      {"measurement": "Cmax, Geometric mean", "setting": "[5]; 100 mg oral tablet", "result": 65.34, "unit": "ng/mL"},
      {"measurement": "tmax, Median", "setting": "[5]; 100 mg oral tablet", "result": 0.75, "unit": "h"},
      {"measurement": "t1/2, Geometric mean", "setting": "[5]; 100 mg oral", "result": 7.66, "unit": "h"},
      {"measurement": "median % TI in the liver vs vehicle control", "setting": "liver of Crl:CD(SD) rats; female rats, 25 and 50 mg/kg/day oral gavage, three doses, p<0.001", "result": "Statistically significant increases"},
      {"measurement": "DNA strand breaks in the liver (study conclusion)", "setting": "liver of Crl:CD(SD) rats; male and female rats, oral gavage", "result": "evidence of causing an increase in DNA strand breaks"},
      {"measurement": "median % tail intensity (TI) in the liver vs vehicle control", "setting": "liver of Crl:CD(SD) rats; male rats, 75 mg/kg/day oral gavage, three doses, p<0.001", "result": "Statistically significant increases"},
      {"measurement": "macroscopic examination after 3 doses", "setting": "liver of Crl:CD(SD) rats; rat, in vivo", "result": "no test item related lesions"}
    ]},
    {"compound": "O=P1(N(CCCl)CCCl)NCCCO1", "note": "(stereo not shown) [CP, cyclophosphamide]", "values": [
      {"measurement": "structural aberrations, % of the cells", "setting": "[3]; S9-activated system, positive control 2.5, 5 and 7.5 μg/mL", "result": 10.7, "unit": "%"}
    ]}
  ]
}
